Results: patent US10239875B2, “Naphthyridinyl hydrazine derivatives as potent peripheral analgesic agents” (KING SAUD UNIVERSITY, priority 2017, dated 2019)

Test system: Albino mice
Assay: mouse writhing test (acetic acid-induced), peripheral analgesic activity
Type: in vivo
Conditions: for No. of writhes/20 min: 30 min before i.p. acetic acid 0.7% 10 mL/kg, mean ± S.E.; for Protection (%) / analgesic activity compared with acetylsalicylic acid / placebo control (in words): writhing test; for Protection (%): versus placebo control mean; for analgesic activity compared with acetylsalicylic acid / placebo control (in words): 20 mg/kg orally vs acetylsalicylic acid 150 mg/kg, Dunnett's test P < 0.05
Protocol: The test compounds synthesized in Examples 2-11 were tested for analgesic activity as follows. Albino mice of both sexes (27-30 g body weight each) were used in the experiments. Mice used in this experiment were obtained from the Animal House Colony at the National Research Centre (NRC), Egypt. All animals were housed under standard conditions of natural 12-hour light and dark cycles with free access to food and water. Animals were allowed to adapt to the laboratory environment for one week before use in experimentation. All animal procedures were first approved by the Ethics Committee of the NRC, Egypt, and were performed in accordance with standard recommendations and guidelines for proper care and use of laboratory animals.
The peripheral analgesic activities of compounds 1 to 10 were determined in mice using the standard writhing test. Seventy-two mice were divided into 12 groups of 6 mice. Mice of the first (placebo control) and last (active control) groups were treated orally (p.o.) with the vehicle (5 mL/kg) or acetyl salicylic acid (150 mg/kg), respectively. Animals of the second to eleventh groups were orally given one of the selected compounds at doses of 20 mg/kg. Once 30 minutes passed after administration of medication, each mouse received an intraperitoneal injection of acetic acid (0.7% aqueous solution) in a dose of 10 mL/kg to induce writhing. The mice were then placed in transparent boxes, and the number of writhes per animal was counted for 20 minutes after acetic acid injection. The “protection %” was calculated using the following equation: Protection (%)=[Control mean−Treated mean/Control mean]×100.

[1] = acetylsalicylic acid 150 mg/kg orally in DW
[2] = test compound 20 mg/kg orally in DMSO

## CC(=O)Oc1ccccc1C(=O)O [Acetylsalicylic acid, acetylsalicylic acid, reference compound]
[1]
  No. of writhes/20 min: 17.4 ± 1.57 writhes/20 min
  Protection (%): 78.47%

## Cc1ccc2c(NN=Cc3ccc(N4CCOCC4)cc3)cc(C)nc2n1 [Compound 1]
[2]
  No. of writhes/20 min: 24.8 ± 1.02 writhes/20 min
  Protection (%): 69.31%
  analgesic activity compared with acetylsalicylic acid / placebo control (in words): analgesic activity close to that of acetylsalicylic acid

## Cc1ccc2c(NN=Cc3ccc(N4CCNCC4)cc3)cc(C)nc2n1 [Compound 2]
[2]
  No. of writhes/20 min: 39.6 ± 3.14 writhes/20 min
  Protection (%): 50.99%

## Cc1ccc2c(NN=Cc3ccc(N4CCCCC4)cc3)cc(C)nc2n1 [Compound 3]
[2]
  No. of writhes/20 min: 36.2 ± 2.58 writhes/20 min
  Protection (%): 55.20%

## Cc1ccc2c(NN=Cc3ccc(N4CCN(C)CC4)cc3)cc(C)nc2n1 [Compound 4]
[2]
  No. of writhes/20 min: 44.8 ± 2.85 writhes/20 min
  Protection (%): 44.55%

## CC(=NNc1cc(C)nc2nc(C)ccc12)c1ccc(N2CCOCC2)cc1 [Compound 5]
[2]
  No. of writhes/20 min: 29.2 ± 2.50 writhes/20 min
  Protection (%): 63.86%

## CC(=NNc1cc(C)nc2nc(C)ccc12)c1ccc(N2CCNCC2)cc1 [Compound 6]
[2]
  No. of writhes/20 min: 26.2 ± 1.32 writhes/20 min
  Protection (%): 67.57%
  analgesic activity compared with acetylsalicylic acid / placebo control (in words): analgesic activity close to that of acetylsalicylic acid

## CC(=NNc1cc(C)nc2nc(C)ccc12)c1ccc(N2CCCCC2)cc1 [Compound 7]
[2]
  No. of writhes/20 min: 23.6 ± 2.16 writhes/20 min
  Protection (%): 70.79%
  analgesic activity compared with acetylsalicylic acid / placebo control (in words): analgesic activity close to that of acetylsalicylic acid
